# From publication PMC4997874 (Antimicrobial Agents and Chemotherapy, 2016)
# Several values for one entry are separate records, joined by “and”; a condition that tells them apart may be missing. Equal entries are not always repeated. Structures can show the parent of a compound that is named as a salt. Marks after values point to notes of the source that are not given here.
# Tests used:
# [1] = system: PrP^Sc-positive hTERT-ovine microglia; assay: cells; assay type: cell-based; details: Ovis aries, 96 h, read-out: % cell count
# [2] = system: PrP^Sc-positive hTERT-ovine microglia; assay: cells; assay type: cell-based; details: for activity at 1 µM: Ovis aries, Microglia, 96 h, read-out: % BrdU incorporation
# in vitro = details: sheep; for viability at 1 µM: % cell viability
# [3] = system: PrP^Sc accumulation in persistently infected hTERT-ovine microglia; assay type: cell-based; details: for EC50: read-out: TC-EC50 (50% tissue culture effective concentration)
# [4] = target: PrP^Sc in scrapie-positive sheep brain homogenate (Ovis aries, UniProt P23907); assay type: biochemical
# [5] = system: PRNP transcripts in PrP^Sc-negative hTERT-ovine microglia; assay type: cell-based
# [6] = system: total PrP^C in PrP^Sc-negative hTERT-ovine microglia; assay type: cell-based
# [7] = system: PrP^Sc accumulation in scrapie-infected primary ovine microglia; details: cited from earlier work
# [8] = system: PrP^Sc-positive hTERT-ovine microglia
# PrP^Sc in scrapie-positive sheep brain homogenate, sequence (P23907 25-233 limits assumed): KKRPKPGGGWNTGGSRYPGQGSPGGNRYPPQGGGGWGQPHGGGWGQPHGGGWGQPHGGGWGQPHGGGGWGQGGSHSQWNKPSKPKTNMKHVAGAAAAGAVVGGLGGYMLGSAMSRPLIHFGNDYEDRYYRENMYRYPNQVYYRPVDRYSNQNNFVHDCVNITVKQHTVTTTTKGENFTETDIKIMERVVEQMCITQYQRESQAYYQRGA
Structure (SMILES),viability at 1 µM [1],activity at 1 µM [2],CC50 (in vitro),viability at 1 µM (in vitro),% reduction in PrP^Sc [3],EC50 [3],further results
N=C(N)c1ccc2nc(-c3ccc(-c4nc5ccc(C(=N)N)cc5[nH]4)[se]3)[nH]c2c1 [DB1310],92%,91%,> 3160 nM,110%,77% and 77^d %,410 ± 80 nM,Effect on cell proliferation (BrdU) over the 4-day treatment period [2]: significant effect on cell proliferation was not detected; Selectivity index (CC50/TC-EC50) [3]: >7.7^e
N=C(N)c1ccc(-c2ccc(-c3ccc(-c4nc5ccc(C(=N)N)cc5[nH]4)cc3)o2)nc1 [DB1264],89%,77%,> 3160 nM,138%,68^f %,390 ± 60 nM,Effect on cell proliferation (BrdU) over the 4-day treatment period [2]: significant effect on cell proliferation was not detected; Selectivity index (CC50/TC-EC50) [3]: >8.1^e
N=C(N)c1ccc2nc(-c3ccc(NC(=O)Nc4ccc(-c5nc6ccc(C(=N)N)cc6[nH]5)cc4)cc3)[nH]c2c1 [DB2265],–,–,–,105%,28%,–,–
Nc1cccc(-c2ccc(-c3nc4ccc(C5=NCCN5)cc4[nH]3)o2)c1 [DB900],–,–,–,125%,−5%,–,–
N=C(N)c1ccc2nc(-c3ccc(-c4ccc(C(=N)N)c(O)c4)o3)[nH]c2c1 [DB992],–,–,–,150%,30%,–,–
c1ccc2[nH]c(-c3ccc(-c4ccc(C5=NCCN5)cc4)s3)nc2c1 [DB932A],92%,66%,2500 ± 300 nM,81%,70^f %,390 ± 110 nM,Stabilization of PrP^Sc against PK digestion [4]: significant stabilization of PrP^Sc was not detected
N=C(N)c1ccc(-c2ccc(-c3nc4ccccc4[nH]3)o2)cc1 [DB771],–,–,–,98%,27%,–,Stabilization of PrP^Sc against PK digestion [4]: significant stabilization of PrP^Sc was not detected
"c1ccc2[nH]c(-c3ccc(-c4ccc(C5=NCCN5)cc4)o3)nc2c1 [DB772, 2-(2-benzimidazolyl)-5-[4-(2-imidazolino)phenyl] furan dihydrochloride]",89%,78%,3800 ± 900 nM,96%,–,800 ± 90 nM,Effect on PrP^C expression (PRNP transcripts) [5]: significant effect on PrP^C expression was not detected; Effect on PrP^C expression (total PrP) [6]: significant effect on PrP^C expression was not detected; Effect on cell proliferation (BrdU) over the 4-day treatment period [2]: significant effect on cell proliferation was not detected; Inhibition of PrP^Sc accumulation [7]: nearly complete inhibition
N=C(N)c1ccc2nc(-c3ccc(-c4ccc(C(N)=O)cc4)o3)[nH]c2c1 [DB1932],–,–,–,120%,24%,–,–
c1ccc(-c2ccc(-c3nc4ccc(C5=NCCN5)cc4[nH]3)s2)cc1 [DB953],–,–,–,134%,53^f %,–,–
N=C(N)c1ccc2nc(-c3ccc(-c4cccc(-c5ccc(-c6nc7ccc(C(=N)N)cc7[nH]6)o5)c4)o3)[nH]c2c1 [DB2147],–,–,–,90%,37%,–,–
N=C(N)c1ccc(-c2ccc(-c3ccc(-c4nc5ccc(C(=N)N)cc5[nH]4)cc3)s2)cc1 [DB2214],84%,68%,> 3160 nM,180%,69^f %,260 ± 140 nM,–
N=C(N)c1ccc2nc(-c3ccc(-c4ccc(C(=N)N)c(F)c4)o3)[nH]c2c1 [DB989],–,–,–,126%,26%,–,–
N=C(N)c1ccc2nc(-c3ccc(-c4ccc(-c5nc6ccc(C(=N)N)cc6[nH]5)o4)cc3)[nH]c2c1 [DB2137],–,–,–,102%,31%,–,–
Cc1cc(C(=N)N)ccc1-c1ccc(-c2nc3ccc(C(=N)N)cc3[nH]2)o1 [DB850],–,–,–,154%,11%,–,–
N=C(N)c1ccc2nc(-c3ccc(-c4ccc(OCc5cn(CCc6cccc7ccccc67)nn5)cc4)s3)[nH]c2c1 [DB2228],82%,92%,> 3160 nM,120%,63^f %,200 ± 80 nM,Effect on cell proliferation (BrdU) over the 4-day treatment period [2]: significant effect on cell proliferation was not detected; Selectivity index (CC50/TC-EC50) [3]: >15.8^e
N=C(N)c1ccc2nc(-c3ccc(-c4ccc(-c5ccccc5)cc4)o3)[nH]c2c1 [DB1275],–,–,–,115%,49^f %,–,–
N=C(N)c1ccc(-c2ccc(-c3nc4ccc(C(=N)N)cc4[nH]3)s2)cc1 [DB818A],85%,76%,> 3160 nM,170%,74^f %,460 ± 80 nM,Stabilization of PrP^Sc against PK digestion [4]: significant stabilization of PrP^Sc was not detected
N=C(N)c1ccc2nc(-c3ccc(-c4nc5ccc(C(=N)N)cc5[nH]4)s3)[nH]c2c1 [DB1033],96%,68%,> 3160 nM,91%,81% and 81^d %,580 ± 140 nM,Effect on cell viability in dilution series [8]: failed to demonstrate any effect on cell viability; Selectivity index (CC50/TC-EC50) [3]: >5.4^e
N=C(N)c1ccc2nc(-c3ccc(-c4ccc([N+](=O)[O-])cc4)o3)[nH]c2c1 [DB472],–,–,–,120%,11%,–,–
N=C(N)c1ccc(-c2ccc(-c3cnc4ccc(C(=N)N)cc4c3)s2)cc1 [DB1504],102%,100%,> 3160 nM,156%,–,390 ± 110 nM,Effect on cell proliferation (BrdU) over the 4-day treatment period [2]: significant effect on cell proliferation was not detected; Selectivity index (CC50/TC-EC50) [3]: >8.1^e
Cn1c(-c2ccc(-c3ccc(C4=NCCN4)cc3)o2)nc2ccccc21 [DB948],68%,–,1500 ± 500 nM,60%,83% and 83^f %,430 ± 150 nM,–
N=C(N)c1ccc(-c2ccc(-c3nc4ccc(C(=N)N)cc4[nH]3)o2)cc1 [DB293],–,–,–,135%,51^f %,–,–
N=C(N)c1ccc2nc(-c3ccc(-c4ccc(C(N)=O)cc4)s3)[nH]c2c1 [DB1933],–,–,–,127%,39%,–,–
N=C(N)c1ccc2nc(-c3ccc(-c4nc5ccc(C(=N)N)cc5[nH]4)[nH]3)[nH]c2c1 [DB192],98%,101%,> 3160 nM,150%,61^d %,910 ± 80 nM,Effect on cell proliferation (BrdU) over the 4-day treatment period [2]: significant effect on cell proliferation was not detected; Selectivity index (CC50/TC-EC50) [3]: >3.5^e
COc1ccc(-c2ccc(-c3nc4ccc(C(=N)N)cc4[nH]3)s2)cc1 [DB2263],–,–,–,108%,46^f %,–,–
N=C(N)c1ccc2nc(-c3cccc(-c4nc5ccc(C(=N)N)cc5[nH]4)n3)[nH]c2c1 [DB205],–,–,–,127%,52^d %,–,–
"N=C(N)c1ccc(-c2ccc(-c3ccc(C(=N)N)cc3)o2)cc1 [DB075, furamidine]",–,–,–,149%,27%,–,–
Cn1c(-c2nc3ccc(C(=N)N)cc3[nH]2)ccc1-c1nc2ccc(C(=N)N)cc2[nH]1 [DB191],88%,74%,> 3160 nM,188%,65^d %,490 ± 140 nM,Effect on cell viability in dilution series [8]: failed to demonstrate any effect on cell viability; Selectivity index (CC50/TC-EC50) [3]: >6.4^e
c1cc(-c2ccc(-c3nc4ccc(C5=NCCN5)cc4[nH]3)o2)ccc1C1=NCCN1 [DB302],–,–,–,205%,19%,–,–
